# Measurements taken from patent US20260091050A1, “ADVANTAGEOUS ANTI-HCV COMBINATION THERAPY” (Atea Pharmaceuticals, Inc., priority 2021, published 2026).
# Tests used:
# [1] = target: human mitochondrial RNA-dependent RNA polymerase (POLRMT) (Homo sapiens, UniProt O00411); experiment: Incorporation of nucleotide analog triphosphates by human mitochondrial RNA polymerase; assay type: biochemical
# Experimental: The incorporation of these analogs by human mitochondrial RNA-dependent RNA polymerase (POLRMT) were determined according to Arnold et al. (Sensitivity of Mitochondrial Transcription and Resistance of RNA Polymerase II Dependent Nuclear Transcription to Antiviral Ribonucleotides. PLoS Pathog., 2012, 8, e1003030).
# [2] = Storage stability of Compound 1 forms and amorphous salts at 25° C./60% RH for 14 days (HPLC, observation); settings: for Stability on storage: 14 days (2 weeks) at 25° C./60% RH
# Experimental: This initial characterization was followed by storage at 25° C./60% relative humidity (RH) for 14 days with analysis by HPLC and XRPD after 7 and 14 days. FIG. 4A is the XRPD after 14 days at 25° C./60% (RH).
# The samples were then frozen with the solvent removed by lyophilization.
# The samples were then subjected to storage at 25° C./60% relative humidity (RH) for 14 days with analysis by HPLC and XRPD after 7 (FIG. 4B) and 14 days (FIG. 5A).
# HCV = settings: cited from earlier work
# [3] = tested on: replicons containing the NS5B sequences from HCV patient plasma samples (GT1a, 1b, 2a, 2b, 3a-1, 3a-2, 4a and 4d); experiment: Replicons containing NS5B sequences from HCV patient plasma samples (clinical isolates); assay type: cell-based; settings: GT1, GT3, and GT4 clinical isolates, nucleoside equivalent
# [4] = Three-part study (Parts C, D, E) of Compound 1-A: overall safety/tolerability and pharmacokinetics; assay type: in vivo, human; settings: for AUC: human, plasma, oral, Part C
# Experimental: (§1) Part C was a randomized, double-blind, placebo-controlled MAD study divided into three cohorts. […] The dose escalation only proceeded following satisfactory review of the data.
# HCV-infected patients were treatment-naïve with HCV RNA ≥5 log 10 IU/mL. […] Plasma drug levels were measured using LC-MS/MS.
# [5] = Single ascending dose study of Compound 1-A in healthy volunteers (Part A); assay type: in vivo, human; settings: healthy subjects, single dose of Compound 1-A 400 mg, median (range)
# Experimental: Compound 1-A was tested in a single ascending dose (SAD) study to measure its safety, tolerability, and pharmacokinetic in healthy subjects (Part A). Part A was a randomized, double-blind, placebo-controlled SAD study. Healthy subjects in Part A received a single dose of Compound 1-A or placebo in the fasting state. Subjects were confined to the clinic from Day −1 to Day 6.
# Dosing in each cohort was staggered such that 2 subjects (1 active:1 placebo) were evaluated for 48 hours after dosing before the remainder of the cohort was dosed. Each cohort received Compound 1-A in ascending order. Dosing of sequential cohorts occurred based on review of available safety data (through Day 5) and plasma pharmacokinetic data (through 24 h) of the prior cohort.
# As pharmacokinetic and safety data emerged from prior cohorts, doses evaluated in Cohorts 3a-4a were adjusted by increments no more than 100 mg.
# Healthy volunteers in the Part A portion of the study were male and female subjects between the ages of 18 and 65. Active and placebo recipients were pooled within each Part A cohort to preserve the study blind.
# [6] = Plasma profiles of Compound 1 and metabolite 1-7 after single oral dose of Compound 1-A, Sprague-Dawley rats; assay type: in vivo; settings: rat, single oral dose of Compound 1-A 500 mg/kg (0.5% CMC, 0.5% Tween 80 in water)
# GT1 HCV [7] = experiment: Single ascending dose study of Compound 1-A in GT1-HCV infected patients (Part B); assay type: in vivo, human; settings: GT1-HCV infected patients, Compound 1-A 300 mg (second 300 mg line), median (range)
# Experimental: Subjects in Part B received a single dose of Compound 1-A in the fasting state. Patients were confined to the clinic from Day −1 to Day 6.
# Part B was initiated after the safety (through Day 5) and plasma pharmacokinetic (through 24 h) data review from Cohort 3a in Part A. Available safety data (through Day 5) and pharmacokinetic data (through 24 h) was reviewed for the first cohort in Part B (Cohort 1b) before enrolling subsequent Part B cohorts. Subsequent Part B cohorts were only dosed following review of available safety and pharmacokinetic data from the respective doses in Part A as well as available safety (through Day 5) from the prior Part B cohorts.
# Patients infected with HCV were treatment-naïve, non-cirrhotic GT1-infected subjects with a viral load of ≥5 log10 IU/mL.
# Baseline was defined as the mean of Day −1 and Day 1 (pre-dose). […] The mean maximum HCV RNA reduction 24 hours post-dose following a single 300 mg dose was 1.7 log10 IU/mL and this compares to a −2 log 10 IU/mL reduction after 1 day of 400 mg of sofosbuvir monotherapy in GT1a HCV-infected subjects. The mean maximum HCV RNA reduction 24 hours post-dose following a single 100 mg dose was 0.8 log10 IU/mL. The mean 10 maximum HCV RNA reduction was 2.2 log10 IU/mL following a single 400 mg dose.
# GT3 HCV = experiment: 600 mg QD for 7 days in non-cirrhotic GT3 HCV-infected patients (Part D); assay type: in vivo, human; settings: 600 mg QD, Part D
# Experimental: (§2) Doses were administered as the Compound 1-A salt base. The free base Compound 1 equivalent is often given in parenthesis.
# as §1
# (§3) HCV-infected patients were treatment-naïve with HCV RNA ≥5 log 10 IU/mL. HCV RNA was quantified using COBAS® AmpliPrep TaqMAN® v2.0 with LLQ of 15 IU/mL. Plasma drug levels were measured using LC-MS/MS. […] Mean ages of enrolled subjects were 44, 39, and 56 years in the non-cirrhotic GT1b 600 mg dose cohort, non-cirrhotic GT3 cohort, and the cirrhotic cohort, respectively.
# GT1 HCV [8] = experiment: Multiple dose study, 7 days QD, non-cirrhotic GT1 HCV-infected patients (Part C); assay type: in vivo, human
# Experimental: as §2, §1, §3
# GT1, GT2, or GT3 HCV = experiment: 600 mg QD for 7 days in Child-Pugh A cirrhotic patients with GT1, GT2 or GT3 HCV (Part E); assay type: in vivo, human
# Experimental: Doses were administered as the Compound 1-A salt base. The free base Compound 1 equivalent is often given in parenthesis. […]
# as §3
# [9] = Plasma profiles of Compound 1 and metabolite 1-7 after single oral doses of Compound 1-A, cynomolgus monkeys; assay type: in vivo; settings: monkey
# [10] = incorporation by human mitochondrial RNA polymerase
# [11] = single oral dose of Compound 1-A 30 mg/kg (powder in capsules)
# [12] = single oral dose of Compound 1-A 100 mg/kg (powder in capsules)
# [13] = single oral dose of Compound 1-A 300 mg/kg (powder in capsules)
# human mitochondrial RNA-dependent RNA polymerase (POLRMT), sequence (O00411 42-1230): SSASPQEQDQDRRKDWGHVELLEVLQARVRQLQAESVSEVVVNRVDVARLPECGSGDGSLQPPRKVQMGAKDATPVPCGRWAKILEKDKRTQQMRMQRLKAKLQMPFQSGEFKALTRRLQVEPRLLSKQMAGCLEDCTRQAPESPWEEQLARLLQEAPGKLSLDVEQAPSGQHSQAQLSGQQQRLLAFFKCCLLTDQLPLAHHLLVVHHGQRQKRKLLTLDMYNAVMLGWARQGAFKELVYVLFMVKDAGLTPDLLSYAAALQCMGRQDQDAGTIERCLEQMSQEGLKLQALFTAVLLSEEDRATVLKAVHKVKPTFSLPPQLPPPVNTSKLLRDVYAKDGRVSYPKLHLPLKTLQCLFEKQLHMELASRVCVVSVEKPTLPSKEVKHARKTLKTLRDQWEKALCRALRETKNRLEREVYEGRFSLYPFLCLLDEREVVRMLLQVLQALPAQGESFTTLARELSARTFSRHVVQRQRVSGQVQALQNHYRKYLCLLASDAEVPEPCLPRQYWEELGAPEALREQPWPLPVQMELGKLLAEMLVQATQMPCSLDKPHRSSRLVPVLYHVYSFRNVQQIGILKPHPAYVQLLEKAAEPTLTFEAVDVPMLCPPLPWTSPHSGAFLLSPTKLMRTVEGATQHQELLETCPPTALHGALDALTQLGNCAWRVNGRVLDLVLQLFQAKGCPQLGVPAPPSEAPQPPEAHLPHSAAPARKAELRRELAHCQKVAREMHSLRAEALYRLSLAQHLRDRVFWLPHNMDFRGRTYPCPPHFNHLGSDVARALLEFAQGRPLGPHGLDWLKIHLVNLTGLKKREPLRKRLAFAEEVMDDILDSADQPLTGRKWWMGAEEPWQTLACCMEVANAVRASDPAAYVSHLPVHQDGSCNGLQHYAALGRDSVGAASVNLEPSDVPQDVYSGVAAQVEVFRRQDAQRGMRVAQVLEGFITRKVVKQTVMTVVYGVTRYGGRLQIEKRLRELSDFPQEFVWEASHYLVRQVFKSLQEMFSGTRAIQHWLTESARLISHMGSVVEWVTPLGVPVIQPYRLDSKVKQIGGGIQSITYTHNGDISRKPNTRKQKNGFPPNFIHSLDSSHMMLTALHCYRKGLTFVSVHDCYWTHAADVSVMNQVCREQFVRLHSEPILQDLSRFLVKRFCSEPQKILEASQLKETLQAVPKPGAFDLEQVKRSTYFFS
compound,measurement,setting,value
C[C@@]1(O)[C@H](O)[C@@H](COP(=O)(O)OP(=O)(O)OP(=O)(O)O)O[C@H]1n1cnc2c(=O)[nH]c(N)nc21 [2′-C-methyl GTP],Kpol,[1]; [10],0.051 s⁻¹
CNc1nc(N)nc2c1ncn2[C@@H]1O[C@H](CO[P@@](=O)(N[C@@H](C)C(=O)OC(C)C)Oc2ccccc2)[C@@H](O)[C@@]1(C)F [Sample 1-3],HPLC,[2]; 0 days at 25° C./60% RH,99.7
same,Observation,[2]; 0 days at 25° C./60% RH,White solid
same,HPLC,[2]; 7 days at 25° C./60% RH,99.6
same,Observation,[2]; 7 days at 25° C./60% RH,White solid
same,HPLC,[2]; 14 days at 25° C./60% RH,99.4
same,Observation,[2]; 14 days at 25° C./60% RH,White solid
CNc1nc(N)nc2c1ncn2[C@@H]1O[C@H](CO[P@@](=O)(N[C@@H](C)C(=O)OC(C)C)Oc2ccccc2)[C@@H](O)[C@@]1(C)F [Sample 1-9],HPLC,[2]; 0 days at 25° C./60% RH,98.7
same,Observation,[2]; 0 days at 25° C./60% RH,White solid
same,HPLC,[2]; 7 days at 25° C./60% RH,98.1
same,Observation,[2]; 7 days at 25° C./60% RH,White solid
same,Stability on storage,[2],physically and chemically stable
same,HPLC,[2]; 14 days at 25° C./60% RH,96.4
same,Observation,[2]; 14 days at 25° C./60% RH,White solid
C[C@@]1(F)[C@H](O)C(CO[P@@](=O)(O)OP(=O)(O)OP(=O)(O)O)O[C@H]1n1ccc(=O)[nH]c1=O (stereo partly drawn) [2′-deoxy-2′-F-2′-C-methyl UTP],Kpol,[1]; [10],0.00034 s⁻¹
C[C@@]1(F)[C@H](O)[C@@H](COP(=O)(O)OP(=O)(O)OP(=O)(O)O)O[C@H]1n1cnc2c(=O)[nH]c(N)nc21 [metabolite 1-6],incorporation by human mitochondrial RNA polymerase,[1],poorly incorporated
same,Relative Efficiency,"[1]; (Kpol/Kd, app)analog nucleotide/(Kpol/Kd, app)natural nucleotide",2.2 × 10^−6
same,Kpol,[1]; [10],0.0017 s⁻¹
same,"Kpol/Kd, app",[1]; [10],8.3e-06 µM⁻¹ s⁻¹
same,Kd,"[1]; incorporation by human mitochondrial RNA polymerase, read-out: Kd, app",204 µM
CC(C)OC(=O)[C@H](C)N[P@](=O)(OC[C@H]1O[C@@H](n2ccc(=O)[nH]c2=O)[C@](C)(F)[C@@H]1O)Oc1ccccc1 [sofosbuvir],HCV RNA reduction,"HCV; after 1 day of 400 mg monotherapy, GT1a HCV-infected subjects",−2 log 10 IU/mL
same,steady-state trough concentration,HCV; similar dosage form (400 mg QD),approximately 100 ng/mL
same,EC95,[3],greater than 100 ng/mL
"C[C@@]1(F)[C@H](O)[C@@H](CO)O[C@H]1n1cnc2c(=O)[nH]c(N)nc21 [metabolite 1-7, 2-amino-9-((2R,3R,4R,5R)-3-fluoro-4-hydroxy-5-(hydroxymethyl)-3-methyltetrahydrofuran-2-yl)-1,9-dihydro-6H-purin-6-one]",T1/2 SS,"[4]; Part E, 600 mg/d (n=6), steady state",24.4 ± 9.81 h
same,AUC,"[4]; 150 mg/d, AUC Day 1 (AUC, for Metabolite 1-7), 150 mg/d (n=6), Day 1",800 ± 213 ng·h/mL
same,AUC,"[4]; 150 mg/d, AUC SS (AUC, for Metabolite 1-7), 150 mg/d (n=6), steady state",962 ± 409 ng·h/mL
same,AUC,"[4]; 300 mg/d, AUC Day 1 (AUC, for Metabolite 1-7), 300 mg/d (n=6), Day 1",1410 ± 220 ng·h/mL
same,AUC,"[4]; 300 mg/d, AUC SS (AUC, for Metabolite 1-7), 300 mg/d (n=6), steady state",1830 ± 453 ng·h/mL
same,food effect on total and trough exposure,[4]; in vivo,No food effect
same,Tmax,[5],6.0 (4.0-8.0) h
same,AUC0-last,[6],9640 ng·h/mL
same,Cmax,[6],541 ng/mL
same,T1/2,[6],15.3 h
same,Tmax,[6],6 to 8 h
same,Tmax,GT1 HCV [7],4.0 (3.0-6.0) h
same,subjects achieving HCV RNA below the lower limit of quantitation,GT3 HCV,17%
same,subjects achieving HCV RNA <LOQ,"GT1 HCV [8]; 600 mg QD, non-cirrhotic GT1b, LOQ=15 IU/mL",50%
same,time of peak formation after dosing,GT1 HCV [8]; Part C,approximately 6 hours
same,subjects achieving HCV RNA below the lower limit of quantitation,"GT1, GT2, or GT3 HCV; 600 mg QD, Part E",17%
same,day on which steady state of concentrations was reached,"GT1, GT2, or GT3 HCV; subjects with cirrhosis",5 days
same,AUC0-last,[9]; [11],1620 ng·h/mL
same,Cmax,[9]; [11],42.5 ng/mL
same,T1/2,[9]; [11],11.5 h
same,Tmax,[9]; [11],12 to 24 h
same,AUC0-last,[9]; [12],3030 ng·h/mL
same,Cmax,[9]; [12],131 ng/mL
same,T1/2,[9]; [12],15.0 h
same,Tmax,[9]; [12],4 h
same,AUC0-last,[9]; [13],3660 ng·h/mL
same,Cmax,[9]; [13],93.6 ng/mL
same,T1/2,[9]; [13],18.8 h
same,Tmax,[9]; [13],4 to 24 h
"CNc1nc(N)nc2c1ncn2[C@@H]1O[C@H](CO[P@@](=O)(N[C@@H](C)C(=O)OC(C)C)Oc2ccccc2)[C@@H](O)[C@@]1(C)F [Sample 1-1, isopropyl((S)-(((2R,3R,4R,5R)-5-(2-amino-6-(methylamino)-9H-purin-9-yl)-4-fluoro-3-hydroxy-4-methyltetrahydrofuran-2-yl)methoxy)(phenoxy)phosphoryl)-L-alaninate]",HPLC,[2]; 0 days at 25° C./60% RH,98.6
same,Observation,[2]; 0 days at 25° C./60% RH,White solid
same,HPLC,[2]; 7 days at 25° C./60% RH,98.7
same,Observation,[2]; 7 days at 25° C./60% RH,White solid
same,Stability on storage,[2],stable
same,HPLC,[2]; 14 days at 25° C./60% RH,98.5
same,Observation,[2]; 14 days at 25° C./60% RH,White solid
"CNc1nc(N)nc2c1ncn2[C@@H]1O[C@H](CO[P@@](=O)(N[C@@H](C)C(=O)OC(C)C)Oc2ccccc2)[C@@H](O)[C@@]1(C)F [Sample 1-2, isopropyl((S)-(((2R,3R,4R,5R)-5-(2-amino-6-(methylamino)-9H-purin-9-yl)-4-fluoro-3-hydroxy-4-methyltetrahydrofuran-2-yl)methoxy)(phenoxy)phosphoryl)-L-alaninate]",HPLC,[2]; 0 days at 25° C./60% RH,99.1
same,Observation,[2]; 0 days at 25° C./60% RH,White solid
same,HPLC,[2]; 7 days at 25° C./60% RH,99.2
same,Observation,[2]; 7 days at 25° C./60% RH,White solid
same,Stability on storage,[2],stable
same,HPLC,[2]; 14 days at 25° C./60% RH,99.0
same,Observation,[2]; 14 days at 25° C./60% RH,White solid
